Source: US5026554A, “Method of inhibiting fungal growth using squalene synthetase inhibitors” (Merck & Co., Inc., priority 1990, dated 1991)
pIC50: −log10 of the molar value. Values after ≈ are worked out from the molar mass of the structure shown.

Tests used:
Crypt. neoformans MY1051 = assay: antifungal MIC, microtiter dilution assay, yeast; assay type: cell-based; conditions: Cryptococcus neoformans, YNB/G, 24 to 48 hours, 35° C., read-out: Minimum Inhibitory Concentration
Experimental: (§1) The compounds are particularly active towards filamentous fungi and yeasts including Candida albicans and Cryptococcus neoformans. The sensitivity of filamentous fungi and yeast was determined using inhibitor dilution assays in microtiter format. The compounds were dissolved in DMSO at 2 mg/ml and serially diluted in 0.1M phosphate buffer, pH 7.0 in the microtiter dish from 100 to 0.006 μg/ml. A standardized spore suspension for testing the filamentous fungi was prepared by inoculating Antibiotic Medium #3 containing 1.5% agar with spores such that 1.5×10^3 colony forming units were added per well. The microtiter wells were filled with 50 μl of buffer containing compound and 50 μl of inoculated medium.
(§2) The sensitivity of yeasts was determined by inoculating yeast nitrogen base containing 1% dextrose (YNB/G) with aliquots of an overnight yeast culture grown in Yeast Morphology (YM) media at 35° C. and diluting in YNB/G to yield a final concentration of 1.5-7.5×10^3 colony forming units/well. To test the sensitivity of yeast, compound was solubilized in 10 percent aqueous DMSO at 2.56 mg/ml. The compound was diluted serially in YNB/G from 128 to 0.06 μg/ml and further diluted 1:10 in YNB/G. The wells were filled with 150 μl of media containing drug. The minimum inhibitory concentration (MIC) is defined as the lowest concentration to prevent growth after an incubation for 42 hours, at 28° C. for the filamentous fungi and 24 to 48 hours, at 35° C. for the yeasts. Representative of the antifungal activity are the minimum inhibitory concentration data shown below.

Candida albicans MY1055 = assay: antifungal MIC, microtiter dilution assay, yeast; assay type: cell-based; conditions: YNB/G, 24 to 48 hours, 35° C., read-out: Minimum Inhibitory Concentration
Experimental: as §1, §2

C. tropicalis MY1012 = assay: antifungal MIC, microtiter dilution assay, yeast; assay type: cell-based; conditions: Candida tropicalis, YNB/G, 24 to 48 hours, 35° C., read-out: Minimum Inhibitory Concentration
Experimental: as §1, §2

C. parapsilosis MY1010 = assay: antifungal MIC, microtiter dilution assay, yeast; assay type: cell-based; conditions: Lodderomyces parapsilosis, YNB/G, 24 to 48 hours, 35° C., read-out: Minimum Inhibitory Concentration
Experimental: as §1, §2

A. nidulans R21 = assay: antifungal MIC, microtiter dilution assay, filamentous fungi; assay type: cell-based; conditions: Aspergillus nidulans, 42 hours, 28° C., read-out: Minimum Inhibitory Concentration
Experimental: as §1
(§3) The sensitivity of yeasts was determined by inoculating yeast nitrogen base containing 1% dextrose (YNB/G) with aliquots of an overnight yeast culture grown in Yeast Morphology (YM) media at 35° C. and diluting in YNB/G to yield a final concentration of 1.5-7.5×10^3 colony forming units/well. To test the sensitivity of yeast, compound was solubilized in 10 percent aqueous DMSO at 2.56 mg/ml. The compound was diluted serially in YNB/G from 128 to 0.06 μg/ml and further diluted 1:10 in YNB/G. The wells were filled with 150 μl of media containing drug. […]

Aspergillus flavus MF383 = assay: as above; assay type: cell-based; conditions: 42 hours, 28° C., read-out: Minimum Inhibitory Concentration
Experimental: as §1, §3

Squalene Synthetase = biological target: T1, Squalene Synthetase (Rattus norvegicus, UniProt Q02769); assay: Squalene Synthetase Assay (intrinsic squalene synthetase inhibitory activity); assay type: biochemical; conditions: rat liver microsomes, [4-14C]farnesyl-pyrophosphate, 30° C., 20 minutes
T1 construct: from tissue; host or cells: liver microsomes of male Charles River CD rats fed 0.1% lovastatin
T1 sequence (Q02769 1-416): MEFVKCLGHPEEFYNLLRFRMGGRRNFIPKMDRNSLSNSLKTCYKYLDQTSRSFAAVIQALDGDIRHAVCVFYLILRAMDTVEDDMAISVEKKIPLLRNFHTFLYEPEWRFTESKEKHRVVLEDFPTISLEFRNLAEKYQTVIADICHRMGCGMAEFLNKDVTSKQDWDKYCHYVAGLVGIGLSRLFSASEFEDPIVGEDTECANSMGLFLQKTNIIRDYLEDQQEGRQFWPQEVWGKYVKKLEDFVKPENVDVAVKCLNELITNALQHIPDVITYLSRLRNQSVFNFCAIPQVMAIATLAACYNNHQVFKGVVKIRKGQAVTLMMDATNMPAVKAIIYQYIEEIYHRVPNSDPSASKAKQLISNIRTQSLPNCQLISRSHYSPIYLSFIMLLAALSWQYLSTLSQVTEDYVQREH
Experimental: The intrinsic squalene synthetase inhibitory activity of representative compounds of this invention was measured by the standard in vitro protocol described below:
Male, Charles River CD rats (120 to 150 g) were fed a diet containing 0.1% lovastatin for 4 days. The livers from these rats were homogenized in 5 volumes (ml/g) of ice cold 50 mM HEPES (4-(2-hydroxyethyl)-1-piperazine-ethanesulfonic acid), 5 mM EDTA(ethylenediaminetetraacetic acid) pH 7.5 with a Potter-Elvehjem type tissue grinder. The homogenate was centrifuged twice at 20,000×g for 15 minutes at 4° C., discarding the pellet each time. The supernatant was then centrifuged at 100,000×g for 1 hour at 4° C. The resulting microsomal pellet was resuspended in a volume of the above homogenizing buffer equal to one-fifth the volume of the original homogenate. This microsomal preparation has a protein concentration of about 7 mg/ml. The microsomal suspensions were stored in aliquots at -70° C. Squalene synthetase activity in these aliquots is stable for at least several months.
Prenyl transferase was purified to use in the enzymatic synthesis of radiolabelled farnesyl pyrophosphate. Prenyl transferase was assayed by the method of Rilling (Methods in Enzymology 110, 125-129 (1985)) and a unit of activity is defined as the amount of enzyme that will produce 1 μ mole of farnesyl pyrophosphate per minute at 30° C. in the standard assay. […]

MIC (Crypt. neoformans MY1051): 1 µg/mL (≈ 1.32 µM) | MIC (Candida albicans MY1055): 16 µg/mL (≈ 21.2 µM) | MIC (C. tropicalis MY1012): 8 µg/mL (≈ 10.6 µM) | MIC (C. parapsilosis MY1010): 8 µg/mL (≈ 10.6 µM) | MIC (A. nidulans R21): 1.5 µg/mL (≈ 1.99 µM) | MIC (Aspergillus flavus MF383): 1.5 µg/mL (≈ 1.99 µM) | pIC50 (Squalene Synthetase): 8.05
Compound: CC(=O)OC(CCCC12OC(C(=O)O)C(O)(C(=O)O)C(C(=O)O)(O1)C(OC(=O)CCC=CC(C)CCCc1ccccc1)C2O)C(C)Cc1ccccc1 (stereo not shown) [Compound A]
